Experimental data: a compilation of properties of binary mixtures (doi:10.1021/acs.jpcc.9b07923)

Test: xn = mol fraction of the nth substance listed
Conditions: 100 kPa

Fc1ccccn1 + Fc1cccc[nH+]1.O=S(=O)([O-])C(F)(F)F
Conditions	electrical conductivity [S/m]
242.2 K, x1 = 0.95	0.091
242.4 K, x1 = 0.5	0.0018
242.6 K, x1 = 0.86	0.075
244.9 K, x2 = 0.01	0.083
247.7 K, x1 = 0.9	0.109
251.9 K, x1 = 0.95	0.118
252.3 K, x1 = 0.86	0.113
252.8 K, x1 = 0.5	0.0037
254.7 K, x2 = 0.01	0.102
257.7 K, x1 = 0.9	0.168
262 K, x1 = 0.95	0.353
262.5 K, x2 = 0.01	0.12
262.6 K, x1 = 0.9	0.201
262.7 K, x1 = 0.86	0.161
267.6 K, x1 = 0.86	0.187
267.6 K, x1 = 0.9	0.24
271.8 K, x1 = 0.95	0.445
272.4 K, x1 = 0.9	0.279
272.5 K, x1 = 0.86	0.229
272.6 K, x2 = 0.01	0.137
272.7 K, x1 = 0.5	0.0132
277.5 K, x1 = 0.9	0.532
277.9 K, x1 = 0.86	0.295
282.6 K, x2 = 0.01	0.156
282.9 K, x1 = 0.86	0.408
287.4 K, x1 = 0.5	0.0369
287.7 K, x1 = 0.9	0.608
287.7 K, x2 = 0.01	0.161
292.1 K, x1 = 0.95	0.596
292.2 K, x1 = 0.5	0.0485
292.6 K, x1 = 0.86	0.658
296.9 K, x1 = 0.95	0.644
297.4 K, x1 = 0.5	0.0902
297.6 K, x1 = 0.86	0.711
297.6 K, x2 = 0.01	0.189
302.3 K, x1 = 0.5	0.185
302.5 K, x2 = 0.01	0.204
303 K, x1 = 0.86	0.769
303.3 K, x1 = 0.95	0.664
